Assay results: US20230265151A1, “GIP/GLP1 CO-AGONIST COMPOUNDS” (priority 2020, published 2023)
Read-outs that look alike come from different tables or passages of the source.

Assays:
[1] = target: T1, human GLP-1 receptor (hGLP-1R) (Homo sapiens, UniProt P43220); assay: [125I]-GLP-1 binding, SPA with membranes of HEK293 cells expressing hGLP-1R; conditions: human GLP-1R; geometric mean (SEM, n); read-out: Binding Affinity Ki, nM (SEM, n) hGLP-1R
T1 construct: expressed in transfected cells; crude membranes
T1 sequence (P43220 24-463): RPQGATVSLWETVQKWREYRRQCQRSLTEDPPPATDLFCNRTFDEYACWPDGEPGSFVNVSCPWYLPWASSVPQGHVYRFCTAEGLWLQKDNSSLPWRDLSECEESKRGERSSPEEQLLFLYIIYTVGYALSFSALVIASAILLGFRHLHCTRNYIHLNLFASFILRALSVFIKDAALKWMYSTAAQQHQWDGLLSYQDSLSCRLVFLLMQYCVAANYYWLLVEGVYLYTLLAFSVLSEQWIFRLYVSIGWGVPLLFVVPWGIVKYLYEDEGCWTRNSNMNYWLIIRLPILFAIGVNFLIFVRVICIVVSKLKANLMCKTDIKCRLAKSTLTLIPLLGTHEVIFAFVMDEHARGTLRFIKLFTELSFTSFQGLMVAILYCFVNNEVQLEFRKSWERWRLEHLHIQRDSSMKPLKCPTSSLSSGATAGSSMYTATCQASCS

[2] = target: T2, human GIP receptor (hGIPR) (Homo sapiens, UniProt P48546); assay: [125I]-GIP binding, SPA with membranes of CHO cells expressing hGIPR; conditions: human GIPR; geometric mean (SEM, n); read-out: Binding Affinity Ki, nM (SEM, n) hGIPR
T2 construct: expressed in transfected cells; crude membranes
T2 sequence (P48546 22-466): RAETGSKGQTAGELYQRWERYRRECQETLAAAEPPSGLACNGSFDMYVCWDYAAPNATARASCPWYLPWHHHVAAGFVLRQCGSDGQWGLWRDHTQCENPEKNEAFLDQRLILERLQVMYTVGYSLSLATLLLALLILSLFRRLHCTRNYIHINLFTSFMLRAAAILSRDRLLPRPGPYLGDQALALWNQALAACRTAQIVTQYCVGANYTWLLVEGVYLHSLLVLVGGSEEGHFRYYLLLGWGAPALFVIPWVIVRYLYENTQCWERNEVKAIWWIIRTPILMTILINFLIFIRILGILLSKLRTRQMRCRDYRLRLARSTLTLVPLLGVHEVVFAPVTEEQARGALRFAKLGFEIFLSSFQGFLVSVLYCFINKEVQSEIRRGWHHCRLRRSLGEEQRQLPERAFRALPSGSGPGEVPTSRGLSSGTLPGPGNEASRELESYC

hGIPR = target: T3, hGIPR (Homo sapiens, UniProt P48546); assay: Functional cAMP formation (HTRF) in HEK-293 clonal cells expressing hGIPR, 0.1% bovine casein, without or with 1.0% human serum albumin; format: cell-based; conditions: 37° C.; for Emax: HEK293, cAMP, percent of maximal response to GIP(1-42)NH2, read-out: hGIPR Emax, % ± SEM; for EC50: cAMP, read-out: hGIPR EC50, nM (SEM, n)
T3 construct: expressed in transfected cells
T3 sequence (P48546 22-466): T2 sequence (P48546 22-466)
How it was run: (§1)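 Readings of the HTRF 665/620 nm ratio, which falls as cAMP rises, were converted to nM cAMP using a standard curve after 30 min peptide exposure at 37° C.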

hGCGR = target: T4, hGCGR (Homo sapiens, UniProt P47871); assay: Functional cAMP formation (HTRF) in HEK-293 clonal cells expressing hGCGR, 0.1% bovine casein, without or with 1.0% human serum albumin; format: cell-based; conditions: cAMP, 37° C., read-out: hGCGR EC50, nM (SEM, n)
T4 construct: expressed in transfected cells
T4 sequence (P47871 26-477): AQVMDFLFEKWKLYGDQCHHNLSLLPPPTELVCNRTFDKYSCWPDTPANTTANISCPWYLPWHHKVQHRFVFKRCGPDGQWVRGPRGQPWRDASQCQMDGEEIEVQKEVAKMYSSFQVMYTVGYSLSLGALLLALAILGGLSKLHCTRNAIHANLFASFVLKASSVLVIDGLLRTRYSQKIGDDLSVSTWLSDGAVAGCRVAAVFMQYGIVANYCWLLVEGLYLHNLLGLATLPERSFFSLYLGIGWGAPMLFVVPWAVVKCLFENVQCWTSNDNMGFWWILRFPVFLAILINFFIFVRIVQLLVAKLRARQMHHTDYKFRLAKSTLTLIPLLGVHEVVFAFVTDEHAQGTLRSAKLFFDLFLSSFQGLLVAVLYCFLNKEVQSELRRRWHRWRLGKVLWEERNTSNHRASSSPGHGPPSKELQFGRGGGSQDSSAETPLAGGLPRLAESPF
How it was run: as §1

hGLP-1R = hGLP-1R (Homo sapiens, UniProt P43220); assay: Functional cAMP formation (HTRF) in HEK-293 clonal cells expressing hGLP-1R, 0.1% bovine casein, without or with 1.0% human serum albumin; format: cell-based; set-up: expressed in transfected cells; conditions: 37° C.; for Emax: HEK293, cAMP, percent of maximal response to GLP-1(7-36)NH2, read-out: hGLP-1R Emax, % ± SEM; for EC50: cAMP, read-out: hGLP-1R EC50, nM (SEM, n)
Sequence of hGLP-1R (P43220 24-463): as the sequence (P43220 24-463) above
How it was run: as §1

[3] = 0.1% bovine casein and 1.0% human serum albumin
[4] = 0.1% bovine casein (no human serum albumin), geometric mean
[5] = 0.1% bovine casein and 1.0% human serum albumin, geometric mean (SEM, n)
[6] = 0.1% bovine casein, arithmetic mean

Row | SMILES | Ki [1] [nM] | Ki [2] [nM] | Emax (hGIPR; [3]) [%] | EC50 (hGIPR; [4]) [nM] | EC50 (hGCGR; [4]) [nM] | EC50 (hGCGR; [5]) [nM] | Emax (hGLP-1R; [3]) [%] | EC50 (hGLP-1R; [4]) [nM] | EC50 (hGLP-1R; [5]) [nM] | EC50 (hGIPR; [5]) [nM] | Emax (hGLP-1R; [6]) [%] | Emax (hGIPR; [6]) [%]
1 | CCCCCCCCCCCC(=O)N[C@@H](CCC(=O)NCCOCCOCC(=O)NCCOCCOCC(=O)NCCOCCOCC(=O)NCCCC[C@H](NC(=O)[C@H](CO)NC(=O)[C@@H]1CCCN1C(=O)[C@@H]1CCCN1C(=O)[C@@H]1CCCN1C(=O)[C@H](C)NC(=O)CNC(=O)[C@H](CO)NC(=O)[C@H](CO)NC(=O)[C@@H]1CCCN1C(=O)CNC(=O)CNC(=O)[C@H](CCC(=O)O)NC(=O)[C@@H](NC(=O)[C@H](CC(C)C)NC(=O)[C@](C)(Cc1ccc(O)cc1)NC(=O)[C@@H](CCC(=O)O)NC(=O)[C@@H](NC(=O)[C@H](Cc1ccccc1)NC(=O)[C@H](CCC(=O)O)NC(=O)C(C)(C)NC(=O)[C@H](CCC(N)=O)NC(=O)[C@H](C)NC(=O)[C@H](CCCCNC(=O)COCCOCCNC(=O)COCCOCCNC(=O)COCCOCCNC(=O)CC[C@H](NC(=O)CCCCCCCCCCC)C(=O)O)NC(=O)[C@H](CCCN)NC(=O)[C@H](CC(=O)O)NC(=O)[C@H](CC(C)C)NC(=O)[C@](C)(CC(C)C)NC(=O)[C@@H](NC(=O)C(C)(C)NC(=O)[C@H](Cc1ccncc1)NC(=O)[C@H](CC(=O)O)NC(=O)[C@H](CO)NC(=O)[C@@H](NC(=O)[C@](C)(Cc1ccccc1F)NC(=O)[C@@H](NC(=O)CNC(=O)[C@H](CCC(=O)O)NC(=O)C(C)(C)NC(=O)[C@@H](N)Cc1ccc(O)cc1)[C@@H](C)O)[C@@H](C)O)[C@@H](C)CC)[C@@H](C)CC)[C@@H](C)CC)C(N)=O)C(=O)O [Example 424] | 0.219 | 0.0206 | 89.5 | 0.00502 | > 9950 | > 9950 | 98.1 | 0.0427 | 3.07 | – | – | –
2 | CCCCCCCCCCCC(=O)N[C@@H](CCC(=O)NCCOCCOCC(=O)NCCOCCOCC(=O)NCCCC[C@H](NC(=O)[C@H](CCCN)NC(=O)[C@H](CC(=O)O)NC(=O)[C@H](CC(C)C)NC(=O)[C@](C)(CC(C)C)NC(=O)[C@@H](NC(=O)C(C)(C)NC(=O)[C@H](Cc1ccncc1)NC(=O)[C@H](CC(=O)O)NC(=O)[C@H](CO)NC(=O)[C@@H](NC(=O)[C@](C)(Cc1ccccc1F)NC(=O)[C@@H](NC(=O)CNC(=O)[C@H](CCC(=O)O)NC(=O)C(C)(C)NC(=O)[C@@H](N)Cc1ccc(O)cc1)[C@@H](C)O)[C@@H](C)O)[C@@H](C)CC)C(=O)N[C@@H](C)C(=O)N[C@@H](CCC(N)=O)C(=O)NC(C)(C)C(=O)N[C@H](C(=O)N[C@@H](Cc1ccccc1)C(=O)N[C@H](C(=O)N[C@H](CCC(=O)O)C(=O)N[C@@](C)(Cc1ccc(O)cc1)C(=O)N[C@@H](CC(C)C)C(=O)N[C@H](C(=O)N[C@@H](CCCCNC(=O)COCCOCCNC(=O)COCCOCCNC(=O)CC[C@H](NC(=O)CCCCCCCCCCC)C(=O)O)C(=O)NCC(=O)NCC(=O)N1CCC[C@H]1C(=O)N[C@@H](CO)C(=O)N[C@@H](CO)C(=O)NCC(=O)N[C@@H](C)C(=O)N1CCC[C@H]1C(=O)N1CCC[C@H]1C(=O)N1CCC[C@H]1C(=O)N[C@@H](CO)C(N)=O)[C@@H](C)CC)[C@@H](C)CC)[C@@H](C)O)C(=O)O [Example 419] | 0.265 | 0.0166 | 88.2 | 0.00958 | > 9950 | > 9950 | 97.3 | 0.132 | – | 0.44 | 113 | –
3 | CCCCCCCCCCCC(=O)N[C@@H](CCC(=O)NCCOCCOCC(=O)NCCOCCOCC(=O)NCCCC[C@H](NC(=O)[C@H](CCCN)NC(=O)[C@H](CC(=O)O)NC(=O)[C@H](CC(C)C)NC(=O)[C@](C)(CC(C)C)NC(=O)[C@@H](NC(=O)C(C)(C)NC(=O)[C@H](Cc1ccncc1)NC(=O)[C@H](CC(=O)O)NC(=O)[C@H](CO)NC(=O)[C@@H](NC(=O)[C@](C)(Cc1ccccc1F)NC(=O)[C@@H](NC(=O)CNC(=O)[C@H](CCC(=O)O)NC(=O)C(C)(C)NC(=O)[C@@H](N)Cc1ccc(O)cc1)[C@@H](C)O)[C@@H](C)O)[C@@H](C)CC)C(=O)N[C@@H](C)C(=O)N[C@@H](CCC(N)=O)C(=O)NC(C)(C)C(=O)N[C@@H](CCCN)C(=O)N[C@@H](Cc1ccccc1)C(=O)N[C@H](C(=O)N[C@H](CCC(=O)O)C(=O)N[C@@](C)(Cc1ccc(O)cc1)C(=O)N[C@@H](CC(C)C)C(=O)N[C@H](C(=O)N[C@@H](CCCCNC(=O)COCCOCCNC(=O)COCCOCCNC(=O)CC[C@H](NC(=O)CCCCCCCCCCC)C(=O)O)C(=O)NCC(=O)NCC(=O)N1CCC[C@H]1C(=O)N[C@@H](CO)C(=O)N[C@@H](CO)C(=O)NCC(=O)N[C@@H](C)C(=O)N1CCC[C@H]1C(=O)N1CCC[C@H]1C(=O)N1CCC[C@H]1C(=O)N[C@@H](CO)C(N)=O)[C@@H](C)CC)[C@@H](C)CC)C(=O)O [Example 414] | 0.194 | 0.0229 | 92.2 | 0.00961 | > 9950 | > 9950 | – | 0.119 | – | 0.274 | – | –
4 | CC[C@H](C)[C@H](NC(=O)[C@H](CC(C)C)NC(=O)[C@](C)(Cc1ccc(O)cc1)NC(=O)[C@H](CCCCNC(=O)COCCOCCNC(=O)CC[C@H](NC(=O)CC[C@H](NC(=O)CC[C@H](NC(=O)CCCCCCCCCCCCC(=O)O)C(=O)O)C(=O)O)C(=O)O)NC(=O)[C@@H](NC(=O)[C@H](Cc1ccccc1)NC(=O)[C@H](CCCN)NC(=O)C(C)(C)NC(=O)[C@H](CCC(N)=O)NC(=O)[C@H](C)NC(=O)[C@H](CCC(N)=O)NC(=O)[C@H](CCCN)NC(=O)[C@H](CC(=O)O)NC(=O)[C@H](CC(C)C)NC(=O)[C@](C)(CC(C)C)NC(=O)[C@@H](NC(=O)C(C)(C)NC(=O)[C@H](Cc1ccncc1)NC(=O)[C@H](CC(=O)O)NC(=O)[C@H](CO)NC(=O)[C@@H](NC(=O)[C@](C)(Cc1ccccc1F)NC(=O)[C@@H](NC(=O)CNC(=O)[C@H](CCC(=O)O)NC(=O)C(C)(C)NC(=O)[C@@H](N)Cc1ccc(O)cc1)[C@@H](C)O)[C@@H](C)O)[C@@H](C)CC)[C@@H](C)CC)C(=O)N[C@@H](CCCCNC(=O)COCCOCCNC(=O)CC[C@H](NC(=O)CC[C@H](NC(=O)CC[C@H](NC(=O)CCCCCCCCCCCCC(=O)O)C(=O)O)C(=O)O)C(=O)O)C(=O)NCC(=O)NCC(=O)N1CCC[C@H]1C(=O)N[C@@H](CO)C(=O)N[C@@H](CO)C(=O)NCC(=O)N[C@@H](C)C(=O)N1CCC[C@H]1C(=O)N1CCC[C@H]1C(=O)N1CCC[C@H]1C(=O)N[C@@H](CO)C(N)=O [Example 486] | 0.299 | 0.046 | 88.2 | 0.0143 | > 9950 | > 9950 | – | 0.166 | – | – | – | 94.1
